According to PubChem BioAssay (NCI):
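All cell lines were grown in 96-well plates and treated with compound for 48 hours. Here, GI50 denotes the concentration required for 50% inhibition of growth. TGI marks complete inhibition of growth.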 Where a SMILES comes first, the peptide text is derived from it. [ ]: non-standard residue; d: D form. Phe(ol) = N[C@H](CO)Cc1ccccc1; dIva = CC[C@@](C)(N)C(=O)O; Aib = CC(C)(N)C(=O)O

What was measured:
Assay in all cases: inhibition of tumour cell growth, NCI panel, 48 h; in the data active = GI50 below about 0.43 µM; inactive = the rest
[1] = test system: 786-0 renal
[2] = test system: A498 renal
[3] = test system: A549 NSCLC
[4] = test system: ACHN renal
[5] = test system: BT-549 breast
[6] = test system: CCRF-CEM leukemia
[7] = test system: COLO 205 colon
[8] = test system: EKVX NSCLC
[9] = test system: HCC-2998 colon
[10] = test system: HCT-116 colon
[11] = test system: HCT-15 colon
[12] = test system: HL-60(TB) leukemia
[13] = test system: HOP-62 NSCLC
[14] = test system: HOP-92 NSCLC
[15] = test system: HS 578T breast
[16] = test system: HT29 colon
[17] = test system: IGROV1 ovarian
[18] = test system: K-562 leukemia
[19] = test system: KM12 colon
[20] = test system: LOX IMVI melanoma
[21] = test system: M14 melanoma
[22] = test system: MALME-3M melanoma
[23] = test system: MCF7 breast
[24] = test system: MDA-MB-231 breast
[25] = test system: MDA-MB-435
[26] = test system: MOLT-4 leukemia
[27] = test system: NCI-H226 lung
[28] = test system: NCI-H23 lung
[29] = test system: NCI-H460 lung
[30] = test system: NCI-H522 lung
[31] = test system: NCI/ADR-RES ovarian
[32] = test system: OVCAR-3 ovarian
[33] = test system: OVCAR-4 ovarian
[34] = test system: OVCAR-5 ovarian
[35] = test system: OVCAR-8 ovarian
[36] = test system: PC-3 prostate
[37] = test system: RPMI-8226 leukemia
[38] = test system: RXF 393 renal
[39] = test system: SF-268 CNS
[40] = test system: SF-295 CNS
[41] = test system: SF-539 CNS
[42] = test system: SK-MEL-2 melanoma
[43] = test system: SK-MEL-28 melanoma
[44] = test system: SK-MEL-5 melanoma
[45] = test system: SK-OV-3 ovarian
[46] = test system: SN12C renal
[47] = test system: SNB-19 CNS
[48] = test system: SNB-75 CNS
[49] = test system: SR leukemia
[50] = test system: SW-620 colon
[51] = test system: T-47D breast
[52] = test system: TK-10 renal
[53] = test system: U251 CNS
[54] = test system: UACC-257 melanoma
[55] = test system: UACC-62 melanoma
[56] = test system: UO-31 renal

CC[C@@](C)(NC(=O)C(C)(C)NC(=O)[C@@H](NC(=O)[C@@H]1CCCN1C(=O)C(C)(C)NC(=O)[C@H](CC(C)C)NC(=O)CNC(=O)C(C)(C)NC(=O)[C@@H](NC(=O)C(C)(C)NC(=O)[C@H](CCC(N)=O)NC(=O)[C@H](C)NC(=O)C(C)(C)NC(=O)[C@H](C)NC(=O)C(C)(C)NC(=O)[C@@H]1CCCN1C(=O)C(C)(C)NC(C)=O)C(C)C)C(C)C)C(=O)N[C@@H](CCC(N)=O)C(=O)N[C@@H](CCC(N)=O)C(=O)N[C@H](CO)Cc1ccccc1 (Ac-[Aib]P[Aib]A[Aib]AQ[Aib]V[Aib]GL[Aib]PV[Aib][dIva]QQ[Phe(ol)])
4.03 µM: TGI [30]
2.08 µM: TGI [12]
2.41 µM: TGI [37]
inactive: GI50 [1] > 4.25 µM | GI50 [2] > 4.25 µM | GI50 [3] 2.39 µM | GI50 [4] > 4.25 µM | GI50 [5] 0.966 µM | GI50 [6] 2.93 µM | GI50 [7] 1.29 µM | GI50 [8] > 4.25 µM | GI50 [9] 1.96 µM | GI50 [10] 1.75 µM | GI50 [11] > 4.25 µM | GI50 [12] 0.96 µM | GI50 [13] > 4.25 µM | GI50 [14] 1.06 µM | GI50 [15] 2.48 µM | GI50 [16] 1.72 µM | GI50 [17] 2.51 µM | GI50 [18] 2.4 µM | GI50 [19] 1.47 µM | GI50 [20] 1.36 µM | GI50 [21] > 4.25 µM | GI50 [22] 0.856 µM | GI50 [24] 1.43 µM | GI50 [25] 1.16 µM | GI50 [26] 1.47 µM | GI50 [27] > 4.25 µM | GI50 [28] 1 µM | GI50 [29] 1.52 µM | GI50 [30] 0.873 µM | GI50 [31] > 4.25 µM | GI50 [32] 1.14 µM | GI50 [33] 1.57 µM | GI50 [34] 1.64 µM | GI50 [35] > 4.25 µM | GI50 [36] 1.66 µM | GI50 [38] 0.964 µM | GI50 [39] 1.63 µM | GI50 [40] > 4.25 µM | GI50 [41] 1.53 µM | GI50 [42] 1.37 µM | GI50 [43] 1.66 µM | GI50 [44] 1.17 µM | GI50 [45] 1.55 µM | GI50 [46] 0.789 µM | GI50 [47] 1.27 µM | GI50 [48] 1.15 µM | GI50 [49] 1.41 µM | GI50 [50] 3.34 µM | GI50 [51] 0.974 µM | GI50 [52] > 4.25 µM | GI50 [53] 1.61 µM | GI50 [54] 1.21 µM | GI50 [55] 1.73 µM | GI50 [56] > 4.25 µM
4.02 µM: TGI [51]
active: GI50 [23] 0.215 µM | GI50 [37] 0.265 µM
3.62 µM: TGI [44]
> 4.25 µM: TGI [1] | TGI [2] | TGI [3] | TGI [4] | TGI [6] | TGI [7] | TGI [8] | TGI [9] | TGI [10] | TGI [11] | TGI [13] | TGI [15] | TGI [16] | TGI [17] | TGI [18] | TGI [19] | TGI [20] | TGI [21] | TGI [23] | TGI [24] | TGI [25] | TGI [26] | TGI [27] | TGI [28] | TGI [29] | TGI [31] | TGI [32] | TGI [33] | TGI [34] | TGI [35] | TGI [36] | TGI [39] | TGI [40] | TGI [41] | TGI [42] | TGI [43] | TGI [45] | TGI [46] | TGI [47] | TGI [48] | TGI [49] | TGI [50] | TGI [52] | TGI [53] | TGI [54] | TGI [55] | TGI [56]
3.11 µM: TGI [38]
2.14 µM: TGI [22]
2.95 µM: TGI [14]
2.67 µM: TGI [5]
